The results in this text go back to ChEMBL document CHEMBL4033686, “Phenylbenzenesulfonates and -sulfonamides as 17β-hydroxysteroid dehydrogenase type 2 inhibitors: Synthesis and SAR-analysis” (Bioorg Med Chem Lett, 2017).

Common to all, as to type: cell-based
Data set [1] concerns the target T1, 17-beta-hydroxysteroid dehydrogenase type 2 (Homo sapiens) (UniProt P37059).
T1 sequence (whole entry): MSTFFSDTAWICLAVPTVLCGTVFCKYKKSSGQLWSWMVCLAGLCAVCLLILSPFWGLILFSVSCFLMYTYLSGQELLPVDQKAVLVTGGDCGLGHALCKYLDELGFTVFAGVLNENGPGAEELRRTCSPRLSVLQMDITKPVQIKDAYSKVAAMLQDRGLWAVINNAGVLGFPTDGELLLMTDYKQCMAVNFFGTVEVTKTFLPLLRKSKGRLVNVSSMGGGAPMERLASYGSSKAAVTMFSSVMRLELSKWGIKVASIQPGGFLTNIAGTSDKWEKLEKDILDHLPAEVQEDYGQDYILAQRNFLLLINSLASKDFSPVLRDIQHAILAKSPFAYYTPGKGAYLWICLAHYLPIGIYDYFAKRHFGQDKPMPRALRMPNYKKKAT
The experiment in a line: Inhibition of recombinant human 17beta-HSD2 expressed in HEK293 cells assessed as residual activity at 20 uM using estradiol as substrate after 10 mins in presence of radiolabeled tracer substrate by scintillation counting method relative to control.

For data set [2], the species on record is Homo sapiens. The experiment in a line: Selectivity index, ratio of compound effect for inhibition of recombinant human 11beta-HSD2 expressed in HEK293 cells assessed as residual activity to compound effect for inhibition of 17beta-HSD2 expressed in HEK293 cells assessed as residual activity.
The species entered for data set [3] is Homo sapiens. The experiment in a line: Selectivity index, ratio of compound effect for inhibition of recombinant human 17beta-HSD1 expressed in HEK293 cells assessed as residual activity to compound effect for inhibition of 17beta-HSD2 expressed in HEK293 cells assessed as residual activity.
Data set [4] is filed under the species Homo sapiens. Description: Selectivity index, ratio of compound effect for inhibition of recombinant human 11beta-HSD1 expressed in HEK293 cells assessed as residual activity to compound effect for inhibition of 17beta-HSD2 expressed in HEK293 cells assessed as residual activity.
The target of data set [5] is T2, 11beta-HSD2 (11-beta-hydroxysteroid dehydrogenase type 2) (Homo sapiens, UniProt P80365).
T2 sequence (P80365 whole entry): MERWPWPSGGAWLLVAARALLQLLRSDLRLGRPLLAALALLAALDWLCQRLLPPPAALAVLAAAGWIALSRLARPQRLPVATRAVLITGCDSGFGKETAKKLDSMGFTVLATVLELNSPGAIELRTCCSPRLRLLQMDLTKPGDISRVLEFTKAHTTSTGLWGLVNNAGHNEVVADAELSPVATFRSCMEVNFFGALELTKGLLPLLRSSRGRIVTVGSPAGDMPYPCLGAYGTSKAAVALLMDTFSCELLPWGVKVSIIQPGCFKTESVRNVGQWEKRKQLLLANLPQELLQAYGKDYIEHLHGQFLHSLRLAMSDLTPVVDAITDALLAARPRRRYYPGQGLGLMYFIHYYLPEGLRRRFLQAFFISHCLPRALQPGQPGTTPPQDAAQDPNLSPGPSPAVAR
Description: Inhibition of recombinant human 11beta-HSD2 expressed in HEK293 cells assessed as residual activity at 20 uM using cortisol as substrate after 10 mins in presence of radiolabeled tracer substrate by scintillation counting method relative to control. As to conditions: HEK293 cells expressing recombinant human 11beta-HSD2, probe cortisol, read-out: Activity.

Data set [6] has as its target T3, 17-beta-hydroxysteroid dehydrogenase type 1 (Homo sapiens) (UniProt P14061).
T3 sequence (whole entry): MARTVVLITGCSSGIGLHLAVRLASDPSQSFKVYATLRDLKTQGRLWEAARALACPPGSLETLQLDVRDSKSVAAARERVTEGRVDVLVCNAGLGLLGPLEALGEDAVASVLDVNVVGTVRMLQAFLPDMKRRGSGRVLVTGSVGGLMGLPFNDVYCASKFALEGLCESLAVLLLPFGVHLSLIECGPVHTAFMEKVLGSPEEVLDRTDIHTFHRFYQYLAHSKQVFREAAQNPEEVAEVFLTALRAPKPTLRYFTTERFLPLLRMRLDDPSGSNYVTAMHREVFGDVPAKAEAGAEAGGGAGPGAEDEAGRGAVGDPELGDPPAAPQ
The experiment in a line: Inhibition of recombinant human 17beta-HSD1 expressed in HEK293 cells assessed as residual activity at 20 uM using estrone as substrate after 10 mins in presence of radiolabeled tracer substrate by scintillation counting method relative to control.

Data set [7] has as its target 11-beta-hydroxysteroid dehydrogenase 1 (Homo sapiens) (UniProt P28845). The experiment in a line: Inhibition of recombinant human 11beta-HSD1 expressed in HEK293 cells assessed as residual activity at 20 uM using cortisone as substrate after 10 mins in presence of radiolabeled tracer substrate by scintillation counting method relative to control.
The target of data set [8] is T4, 17-beta-hydroxysteroid dehydrogenase type 2 (Homo sapiens, UniProt P37059).
T4 sequence (P37059 whole entry): T1 sequence (whole entry)
Description: Inhibition of recombinant human 17beta-HSD2 expressed in HEK293 cells using estradiol as substrate after 10 mins in presence of radiolabeled tracer substrate by scintillation counting method.

Chain of 11-beta-hydroxysteroid dehydrogenase 1 (Homo sapiens) (P28845 whole entry, looked up): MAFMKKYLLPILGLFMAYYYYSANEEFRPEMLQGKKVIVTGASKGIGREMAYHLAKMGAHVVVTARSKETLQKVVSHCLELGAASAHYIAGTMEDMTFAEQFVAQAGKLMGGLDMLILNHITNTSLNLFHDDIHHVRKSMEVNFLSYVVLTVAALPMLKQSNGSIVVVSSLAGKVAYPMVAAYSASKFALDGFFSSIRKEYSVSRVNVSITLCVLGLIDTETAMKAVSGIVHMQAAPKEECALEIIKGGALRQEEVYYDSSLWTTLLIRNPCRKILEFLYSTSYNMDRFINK

Take `CC(C)(C)c1ccc(S(=O)(=O)Oc2ccc(Cl)cc2N)cc1`: the Activity in data set [1] is 44%.

`CC(C)(C)c1ccc(S(=O)(=O)Nc2ccc(F)cc2N)cc1`: the Selectivity Index was 2.7 in data set [2], 1.6 in data set [3] and 0.7 in data set [4]. In data set [5], the activity at 10 min, 20 µM came to 97%. The values for the Activity in data set [6], in data set [1] and in data set [7] were 56%, 36% and 26%, respectively.

As to `CC(C)(C)c1ccc(S(=O)(=O)Nc2ccccc2N)cc1`, in data set [1], the Activity amounted to 46%.

For the compound `CC(C)(C)c1ccc(S(=O)(=O)Oc2ccc(-c3ccccc3)cc2N)cc1`, the Activity in data set [1] came to 86%.

As for `CC(C)(C)c1ccc(S(=O)(=O)Nc2cc(Cl)ccc2N)cc1`, the figures for the Selectivity Index in data set [2], in data set [3] and in data set [4] were 3.4, 2.1 and 1.3, respectively. The IC50 – broadly, the midpoint of a concentration-inhibition curve – in data set [8] turned out to be 5.58 µM. In addition, in data set [5], the activity at 10 min, 20 µM was 75%. The Activity in data set [6] was 46%; in data set [1] it was 22 to 28%; in data set [7] it was 28%.

In the case of `Cc1cc(C)c(O)c(NS(=O)(=O)c2ccc(C(C)(C)C)cc2)c1`, the results for the Selectivity Index in data set [2], in data set [3] and in data set [4] were 2.1, 1.1 and 2.4, respectively. In data set [8], the IC50 is 5.19 µM. Moreover, the activity at 10 min, 20 µM in data set [5] is 37%. For the same compound, the Activity amounted to 19% in data set [6], 18% in data set [1] and 43% in data set [7].

As for `Cc1cc(C)c(OS(=O)(=O)c2ccc(C(C)(C)C)cc2)c(N)c1`, in data set [1], the Activity worked out at 49%.

Take `CC(C)(C)c1ccc(S(=O)(=O)Nc2cc(Cl)ccc2O)cc1`: the Selectivity Index amounted to 1.2 in data set [2], 2.5 in data set [3] and 5.8 in data set [4]. For the same compound, the IC50 in data set [8] was found to be 0.8 µM. Also, the activity at 10 min, 20 µM in data set [5] came out at 7%. In addition, the values for the Activity in data set [6], in data set [1] and in data set [7] were 15%, 6% and 35%, respectively.

With `CC(C)(C)c1ccc(S(=O)(=O)Nc2ccc(Cl)cc2N)cc1`, the Activity in data set [1] was found to be 35%.

As to `Cc1cc(N)c(NS(=O)(=O)c2ccc(C(C)(C)C)cc2)cc1C`, the Activity in data set [1] is 58%.

As to `O=c1cc(-c2ccc(O)cc2)oc2cc(O)cc(O)c12`, the Activity in data set [6] was determined as 11%.

On to `Cc1ccc(O)c(NS(=O)(=O)c2ccc(C(C)(C)C)cc2)c1`, for which the Selectivity Index in data set [2] was 4.8; in data set [3] it was 2.9; in data set [4], 3.5. The IC50 in data set [8] turned out to be 4.09 µM. In addition, in data set [5], the activity at 10 min, 20 µM came out at 63%. In addition, the results for the Activity in data set [6], in data set [1] and in data set [7] were 38%, 13% and 46%, respectively.

As to `Cc1ccc(NS(=O)(=O)c2ccc(C(C)(C)C)cc2)c(O)c1`, the Selectivity Index in data set [2] came to 2.8; in data set [3], 1.6; in data set [4], 1.1. Besides, the IC50 in data set [8] came out at 4.4 µM. The activity at 10 min, 20 µM in data set [5] was determined as 62%. The Activity is 35% in data set [6], 22% in data set [1] and 24% in data set [7].

Take `CC(C)(C)c1ccc(S(=O)(=O)Nc2cc(-c3ccccc3)ccc2O)cc1`: the Selectivity Index in data set [2] amounted to 1.5; in data set [3], 6.5; in data set [4], 31. In data set [8], the IC50 was 1.25 µM. The activity at 10 min, 20 µM in data set [5] was 3%. For the same compound, the Activity in data set [6] amounted to 13%; in data set [1], 2%; in data set [7], 62%.

Consider `CC(C)(C)c1ccc(S(=O)(=O)Nc2c(O)ccc3ccccc23)cc1`, for which the Selectivity Index came to 3 in data set [2], 8.6 in data set [3] and 3 in data set [4]. Also, the IC50 in data set [8] came out at 2.9 µM. For the same compound, the activity at 10 min, 20 µM in data set [5] was determined as 21%. Moreover, the Activity was determined as 46% in data set [6], 7% in data set [1] and 21% in data set [7].

Consider `CC(C)(C)c1ccc(S(=O)(=O)Oc2ccccc2N)cc1`, for which the Activity in data set [1] was determined as 33%.

With `Cc1cc(S(=O)(=O)Nc2cccc(O)c2)c(C)cc1Cl`, the Activity in data set [1] turned out to be 10%.

`CC(C)(C)c1ccc(S(=O)(=O)Nc2cc(Cl)c(Cl)cc2N)cc1`: the Selectivity Index came to 1.9 in data set [2], 2.1 in data set [3] and 6.7 in data set [4]. Also, the IC50 in data set [8] came to 4.65 µM. Further, the activity at 10 min, 20 µM in data set [5] was 21%. For the same compound, the Activity in data set [6] is 23%; in data set [1], 11%; in data set [7], 74%.

For `CC(C)(C)c1ccc(S(=O)(=O)Oc2ccc3ccccc3c2N)cc1`, the Activity in data set [1] is 43%.

Consider `CC(C)(C)c1ccc(S(=O)(=O)Nc2ccccc2O)cc1`, for which the Selectivity Index in data set [2] was 16.6; in data set [3], 8.2; in data set [4], 7.4. In addition, the IC50 in data set [8] was 1.23 µM. In data set [5], the activity at 10 min, 20 µM came out at 83%. Further, the Activity worked out at 41% in data set [6], 5% in data set [1] and 37% in data set [7].

Regarding `Cc1ccc(N)c(OS(=O)(=O)c2ccc(C(C)(C)C)cc2)c1`, in data set [1], the Activity came to 36%.

Turning to `Cc1ccc(OS(=O)(=O)c2ccc(C(C)(C)C)cc2)c(N)c1`, the Activity in data set [1] came out at 37%.
